Experimental data taken from patent publication US8207136B2, “Nucleoside compounds and methods of use thereof” (The Board of Trustees of the University of Illinois, priority 2005, dated 2012).

Key:
[1] = system: p21 promoter; assay: p21 promoter-lacZ reporter screen in LIM1215 colon carcinoma cells; format: cell-based, human; settings: 10 μM, 24 hours
Method: LIM1215 colon carcinoma cells harboring the lacZ reporter gene under the control of a 2.3 kb p21 promoter (containing two p53 binding sites) were grown in 96-well plates. Diversity set, a chemical compound library containing approximately 2000 compounds (dissolved in DMSO), was obtained from the National Cancer Institute (NCI) and was used at a final concentration of 10 μM on the cells for 24 hours. lacZ encoded β-Gal was detected by X-Gal staining as described previously.
In order to find small molecule transcriptional inhibitors of p21, we generated LIM1215 colon cancer cells, carrying lacZ under the control of p21 promoter, as a screening system for testing ˜2000 structurally diverse compounds (Diversity Set) obtained from National Cancer Institute (NCI). […] To determine if these effects mediated by ARC were dose-dependent, we treated HCT-116 colon carcinoma cells with different concentrations of ARC.

[2] = target: T1, RNA polymerase II (Homo sapiens, UniProt P24928); assay: Nuclear run-on assay, nuclei isolated from untreated HCT-116 cells then treated; format: biochemical; settings: 50 μM ARC, 50 μM DRB or 2 μg/ml α-amanitin
T1 construct: nuclei were isolated from normally growing untreated HCT-116 cells and treated with each of these agents; endogenous in cells; host or cells: nuclei of HCT-116 colon cancer cells
Method: (§1) Run-on assays with isolated nuclei were performed as described. Briefly, cells treated with the indicated agents were lysed with hypotonic buffer (10 mM Tris-HCl pH 7.4, 10 mM NaCl and 35 mM MgCl2) and nuclei collected by centrifugation and resuspended in nuclear storage buffer (50 mM HEPES pH 8.0, 5 mM MgCl2, 0.5 mM DTT, 1 mg/ml BSA and 25% (v/v) glycerol) at about 5×10^8 nuclei/ml and stored at −80° C. Transcription reactions were performed in 200 μl volume consisting of 1×10^7 nuclei in the presence of 0.12 M KCl, 7 mM Mg(Ac)2, 25 μCi of [^32P]GTP, 500 μM ATP, UTP and CTP at 30° C. Samples were collected at various time points (18 μl/time point—0, 5, 10, 20 and 30 min) and the reaction terminated by the addition of 57 μl of Sarkosyl solution (1% Sarkosyl, 0.1 M Tris pH 8.0, 0.1 M NaCl, 10 mM EDTA and 200 μg/ml tRNA). The stopped reactions were transferred to Whatman DE81 paper, and washed four times with wash buffer (5% K2HPO4 and 0.3% Na4P2O7) for 10 min, followed by a 5-min water wash. Then the paper was briefly rinsed with 95% ethanol and allowed to dry completely. Radiation was quantitated using a liquid scintillation counter.
In order to evaluate the ability of ARC to bind to and inhibit RNA polymerase II directly (like α-amanitin) or indirectly (like DRB), nuclei were isolated from normally growing untreated HCT-116 cells and treated with each of these agents, and then assayed for rate of transcription by nuclear run-on assay.

[3] = system: HUVECs; assay: Proliferation inhibition assay; format: cell-based; settings: Homo sapiens, HUVEC; 10 ng/ml VEGF, 24, 48 or 72 hours, average from two trials; read-out: IC50, HUVEC growth
Method: (§2) Different angiogenesis assays such as cord formation assay, motility assay and proliferation inhibition assay were performed at the developmental therapeutics program (DTP) branch of NCI (NCI/DTP) as described. HUVECs were used for all the assays. Taxol and TNP-470 were used as positive control for the assays.
For proliferation inhibition assay, HUVECs were grown in the absence of growth factors for 24 hours and then stimulated with 10 ng/ml VEGF and were treated with either DMSO or different concentrations of ARC for 24 hours, 48 hours or 72 hours.

[4] = system: HUVECs; assay: Cord formation assay; format: cell-based; settings: Homo sapiens, HUVEC, 24 hours, averages from three trials
Method: as §2
For cord formation assay, HUVECs were plated on a three dimensional layer of Matrigel, where the cells formed cord-like structures. Later, the cells were treated with vehicle (DMSO) or different concentrations of ARC for 24 hours, after which cord formation was quantitated as a function of cord junctions and cord length.

[5] = system: RNA polymerase II transcription; assay: Nuclear run-on assay, nuclei from treated HCT-116 cells; format: cell-based, human; settings: HCT-116 cells treated 2 hours with 1 mM
Method: as §1
Some transcriptional inhibitors such as DRB and flavopiridol repress p21 and hdm2 while increasing p53 levels. […] To evaluate this activity, HCT-116 cells were treated with one of DMSO (control), ARC or DRB, and nuclei were isolated. These nuclei were assayed for rate of transcription either in the presence or absence of α-amanitin using the nuclear run-on assay. […] If ARC inhibits polymerase I and III transcription, the rate of transcription should be substantially lower in the ARC+α-amanitin (FIG. 2A; curve 5) when compared with DMSO+α-amanitin (FIG. 2A; curve 4). However both of these rates of transcription were similar, implying that ARC might preferentially affect only RNA polymerase II transcription.

[6] = system: Mcl-1, Bcl-2; assay: Immunoblot of Bcl-2 and Mcl-1 levels; format: cell-based
Method: FIG. 8. ARC downregulates Mcl-1 levels in different cancer cells. (A) U937 leukemia cells were treated with different concentrations of ARC as indicated for 24 hours and the cell lysates were probed for Mcl-1 levels. (B) Neuroblastoma cell lines were treated either with DMSO or 1 μM ARC for 24 hours and levels of Mcl-1 were assessed by immunoblotting.
In order to further probe the mechanism of ARC-induced apoptosis, whether or not ARC causes mitochondrial injury was investigated. Permeabilization of mitochondria, followed by cytochrome c release has previously been observed for transcriptional inhibitor flavopiridol. For this analysis, leukemia cell lines CEM, HL-60, NB4 and U937 were treated with either DMSO or ARC. […] It is well known that the Bcl2 family members (eg., Bcl-2, Bcl-XL, Mcl-1) protect the mitochondrial integrity, thereby acting in an anti-apoptotic manner. It is possible that ARC modulates the expression of one or more of these proteins to cause mitochondrial injury.

[7] = system: LIM1215 colon cancer cells; assay: Apoptosis by PI staining and flow cytometry in LIM1215 cells; format: cell-based, human
Method: For Flow Cytometry, cells were fixed in 70% ethanol and stored at −20° C. until further analysis. Equal numbers of fixed cells were then stained with PI solution (0.1% Triton X-100, 0.2 mg/ml DNase free RNase, 0.02 mg/ml propidium iodide) made in PBS for 15 min at 37° C. and analyzed by a flow cytometer.
In order to evaluate the extent to which ARC induces apoptosis relative to that of the other known nucleoside analog DRB, LIM1215 colon cancer cells were treated with either ARC or DRB for 48 hours.

Compound: NNc1c(C(N)=O)c2c(N)ncnc2n1[C@@H]1O[C@H](CO)[C@@H](O)[C@H]1O [ARC, 4-amino-6-hydrazino-7-beta-D-ribofuranosyl-7H-pyrrolo[2,3-d]-pyrimidine-5-carboxamide]
- p21 promoter driven β-Gal expression [1]: inhibit p21 promoter
- rate of transcription, agent added to isolated nuclei [2]: did not affect the rate of transcription
- IC50 [3]: ~0.047 µM
- IC50 ([4]; read-out: IC50, cord junctions): ~0.345 µM
- IC50 ([4]; read-out: IC50, cord length): ~0.382 µM
- rate of transcription versus control nuclei [5]: lower
- rate of transcription in the presence of α-amanitin versus DMSO+α-amanitin ([5]; 2 μg/ml α-amanitin): similar
- Mcl-1 levels ([6]; U937 leukemia and neuroblastoma cell lines, 24 hours): drastically reduced
- Bcl-2 levels ([6]; data not shown): no changes in the levels of Bcl-2
- apoptosis (PI staining, flow cytometry) ([7]; 5 μM, 48 hours): 37.8%
- efficiency in inducing apoptosis relative to DRB ([7]; LIM1215 cells (FIG. 5F)): > 10 fold
